This is an account of results in article PMC3602154 (PLoS ONE, 2013).

One assay addresses T1, 5-HT1A (Homo sapiens, UniProt P08908).
T1 sequence (P08908 1-422): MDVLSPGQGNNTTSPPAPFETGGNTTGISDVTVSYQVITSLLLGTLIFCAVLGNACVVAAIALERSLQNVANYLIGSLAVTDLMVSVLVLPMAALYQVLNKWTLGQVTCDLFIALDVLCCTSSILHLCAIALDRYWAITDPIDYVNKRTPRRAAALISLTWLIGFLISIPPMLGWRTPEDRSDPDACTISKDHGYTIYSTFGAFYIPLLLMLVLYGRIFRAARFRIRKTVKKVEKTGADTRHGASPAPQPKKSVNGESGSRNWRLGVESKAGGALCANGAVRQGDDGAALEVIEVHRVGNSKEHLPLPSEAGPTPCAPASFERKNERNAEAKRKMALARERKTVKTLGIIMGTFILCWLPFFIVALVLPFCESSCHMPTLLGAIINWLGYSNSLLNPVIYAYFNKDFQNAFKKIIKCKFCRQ
Put plainly: PDSP radioligand binding, serotonin receptor 5-HT1A. The text has this:
(§1) [17] and http://pdsp.med.unc.edu/UNC-CH%20Protocol%20Book.pdf.

Another assay has as its target Beta1 (Homo sapiens, UniProt P08588). Put plainly: PDSP radioligand binding, adrenoceptor ß1.
Text: as §1

For another assay, the target named is T2, M2 (Homo sapiens, UniProt P08172).
T2 sequence (P08172 1-466): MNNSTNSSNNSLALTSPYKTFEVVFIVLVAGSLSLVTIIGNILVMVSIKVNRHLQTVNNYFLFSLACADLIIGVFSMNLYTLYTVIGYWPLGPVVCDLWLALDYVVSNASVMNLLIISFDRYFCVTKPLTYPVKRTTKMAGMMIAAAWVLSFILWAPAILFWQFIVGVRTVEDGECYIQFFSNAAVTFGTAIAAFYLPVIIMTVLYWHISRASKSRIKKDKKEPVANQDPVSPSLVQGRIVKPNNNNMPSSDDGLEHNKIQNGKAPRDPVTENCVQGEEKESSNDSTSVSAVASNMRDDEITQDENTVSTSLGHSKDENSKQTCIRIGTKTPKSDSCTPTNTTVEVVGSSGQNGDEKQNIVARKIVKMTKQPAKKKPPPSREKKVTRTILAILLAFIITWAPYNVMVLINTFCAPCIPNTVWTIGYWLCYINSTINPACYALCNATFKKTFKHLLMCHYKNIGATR
Put plainly: PDSP radioligand binding, muscarinic receptor M2.
Text: as §1

Assay [1] concerns the target NET (norepinephrine transporter) (Homo sapiens, UniProt P23975). The experiment in a line: PDSP radioligand binding, norepinephrine transporter. The settings on record: for inhibition at 10 µM: quadruplicate, read-out: NET Primary Screen inhibition of binding.
Text: as §1

The target in a further assay is Sigma2 (Homo sapiens, UniProt Q5BJF2). The experiment in a line: PDSP radioligand binding, Sigma2. To be noted: for inhibition at 10 µM: quadruplicate, read-out: Sigma2 Primary Screen inhibition of binding.
Text: as §1

Assay [2] has as its target SERT (serotonin transporter) (Homo sapiens, UniProt P31645). The experiment in a line: biochemical. Type of assay: binding. To be noted: for Ki: Table 2.
Text: as §1

Chain of Sigma2 (Q5BJF2 whole entry): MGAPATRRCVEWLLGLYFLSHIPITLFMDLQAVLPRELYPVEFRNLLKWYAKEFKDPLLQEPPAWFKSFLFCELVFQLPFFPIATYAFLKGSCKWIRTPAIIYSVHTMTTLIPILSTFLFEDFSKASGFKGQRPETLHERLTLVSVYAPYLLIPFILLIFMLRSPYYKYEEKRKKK
Chain of SERT (serotonin transporter) (P31645 whole entry, species assumed): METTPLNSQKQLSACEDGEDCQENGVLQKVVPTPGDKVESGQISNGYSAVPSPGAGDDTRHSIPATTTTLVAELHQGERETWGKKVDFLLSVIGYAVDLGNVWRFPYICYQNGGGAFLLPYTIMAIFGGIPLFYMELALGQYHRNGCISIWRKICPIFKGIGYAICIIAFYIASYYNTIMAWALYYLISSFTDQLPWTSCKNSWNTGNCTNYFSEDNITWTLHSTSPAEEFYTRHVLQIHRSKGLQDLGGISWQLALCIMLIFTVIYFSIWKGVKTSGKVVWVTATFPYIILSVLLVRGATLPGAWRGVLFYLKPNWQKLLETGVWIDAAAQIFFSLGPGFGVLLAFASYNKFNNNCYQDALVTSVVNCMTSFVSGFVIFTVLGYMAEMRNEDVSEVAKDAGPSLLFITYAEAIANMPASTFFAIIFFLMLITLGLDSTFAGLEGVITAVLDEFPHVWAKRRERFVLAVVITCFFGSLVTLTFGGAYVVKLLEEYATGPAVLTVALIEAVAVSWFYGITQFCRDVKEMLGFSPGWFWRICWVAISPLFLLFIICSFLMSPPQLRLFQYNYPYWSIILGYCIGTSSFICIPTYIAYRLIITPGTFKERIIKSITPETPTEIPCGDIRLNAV
Chain of Beta1 (P08588 whole entry): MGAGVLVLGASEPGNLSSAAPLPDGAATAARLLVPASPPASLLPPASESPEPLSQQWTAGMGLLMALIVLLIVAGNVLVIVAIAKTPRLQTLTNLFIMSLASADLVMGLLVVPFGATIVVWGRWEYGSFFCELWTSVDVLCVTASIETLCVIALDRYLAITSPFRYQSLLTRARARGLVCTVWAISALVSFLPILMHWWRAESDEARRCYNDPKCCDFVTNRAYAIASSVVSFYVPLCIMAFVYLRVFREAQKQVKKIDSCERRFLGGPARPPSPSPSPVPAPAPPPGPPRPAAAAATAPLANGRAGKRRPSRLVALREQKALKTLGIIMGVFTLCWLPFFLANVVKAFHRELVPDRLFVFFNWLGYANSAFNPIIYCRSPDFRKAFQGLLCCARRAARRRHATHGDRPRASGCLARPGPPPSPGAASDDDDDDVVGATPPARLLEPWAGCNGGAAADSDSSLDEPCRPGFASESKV
Chain of NET (norepinephrine transporter) (P23975 whole entry, species assumed): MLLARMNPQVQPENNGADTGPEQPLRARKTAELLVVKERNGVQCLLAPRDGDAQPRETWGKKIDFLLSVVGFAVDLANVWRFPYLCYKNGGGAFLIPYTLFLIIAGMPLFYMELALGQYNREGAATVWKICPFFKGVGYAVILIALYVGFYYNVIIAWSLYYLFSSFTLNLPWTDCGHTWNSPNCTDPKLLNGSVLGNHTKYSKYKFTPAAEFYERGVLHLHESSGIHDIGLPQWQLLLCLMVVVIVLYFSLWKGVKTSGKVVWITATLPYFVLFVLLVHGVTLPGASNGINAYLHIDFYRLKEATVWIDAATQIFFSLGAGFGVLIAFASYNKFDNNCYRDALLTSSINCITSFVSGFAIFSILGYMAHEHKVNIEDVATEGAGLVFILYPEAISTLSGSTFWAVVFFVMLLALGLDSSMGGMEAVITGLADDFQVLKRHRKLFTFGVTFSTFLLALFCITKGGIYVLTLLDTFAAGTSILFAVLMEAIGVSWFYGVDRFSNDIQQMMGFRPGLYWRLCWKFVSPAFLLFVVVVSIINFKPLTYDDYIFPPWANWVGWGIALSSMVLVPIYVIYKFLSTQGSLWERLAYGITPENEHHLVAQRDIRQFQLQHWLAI

The term Ki denotes a dissociation constant, usually derived from enzyme kinetics or from competition with a known ligand. Lower therefore signals tighter binding. For orientation: inhibition means the percentage by which the read-out fell short of the control. As for `CCNC1(c2cccc(OC)c2)CCCCC1=O` (racemic) [Methoxetamine, (RS)-2-(ethylamino)-2-(3-methoxyphenyl)cyclohexanone], the inhibitory constant (Ki) was over 10 µM on 5-HT1A; over 10 µM on Beta1; over 10 µM at M2; over 10 µM in assay [1]; over 10 µM at Sigma2 (Ki Sigma 2, Table S1, unit inferred). The inhibition at 10 µM (in assay [1]; at Sigma2) was under 50% in each case.
Take `COc1cccc(C2(N3CCCCC3)CCCCC2)c1` [3-MeO-PCP, 1-[1-(3-methoxyphenyl)cyclohexyl]piperidine]: the inhibition constant Ki at 5-HT1A is over 10 µM; at Beta1 it was over 10 µM; on M2 it was over 10 µM; in assay [1], over 10 µM; in assay [2] it was 0.216 µM. For the same compound, the inhibition at 10 µM (in assay [1]; at Sigma2) was under 50% throughout.
Take `COc1ccc(C2(N3CCCCC3)CCCCC2)cc1` [4-MeO-PCP, 1-[1-(4-methoxyphenyl)cyclohexyl]piperidine]: the Ki on 5-HT1A is over 10 µM; on Beta1 it was over 10 µM; on M2, over 10 µM; in assay [1] it was 0.713 µM; in assay [2], 0.844 µM. Moreover, the “affinity for the serotonin transporter (SERT), in words” value in assay [2] is recorded as “submicromolar affinities”.
